Experimental data taken from publication PMC5478869, “New Hydroxycinnamic Acid Esters as Novel 5-Lipoxygenase Inhibitors That Affect Leukotriene Biosynthesis” (Mediators of Inflammation, 2017).
Entries after “also recorded” stand apart in the source; their conditions may differ.

What was measured:
[1] = test system: arachidonic acid release; assay: Arachidonic acid release from thapsigargin-stimulated PMNL (GC-MS); type: cell-based, human; settings: 1 μM compound, 1 μM thapsigargin 5 min, vs control (0.5% DMSO)
Protocol: Quantification of arachidonic acid release from cellular membranes was performed as previously described. Briefly, freshly isolated PMNL (10^7 cells/ml, in HBSS containing 1.6 mM CaCl2 and 0.1% BSA) were incubated with adenosine deaminase (0.3 U/ml) and test compounds for 5 min at 37°C. Stimulation was initiated with the addition of 1 μM thapsigargin, followed by incubation at 37°C for 5 min. The reactions were stopped with the addition of two volumes of cold MeOH and 300 ng of arachidonic acid-d8 (Cayman Chemicals) as internal standard. The samples were stored at −20°C overnight and then centrifuged the next day at 1000 g for 10 min. The supernatants were diluted with four volumes of acidified water (0.1%) then processed on an octadecyl (C18) column. Samples were eluted with the addition of 3 ml of MeOH and dried under nitrogen. Pentafluorobenzylesters were prepared with the addition 50 μl N,N-diisopropylethylamine (20% in acetonitrile) and 50 μl of […] (20% in acetonitrile). Samples were heated for 40 min at 40°C, then dried under nitrogen and resuspended in 100 μl of hexane. Samples were quantified by negative ion chemical ionization gas chromatography/mass spectrometry using TraceGC ultra column (Thermo) and a Polaris Q mass spectrometer (Thermo).
Figure 4 The impact of test compounds on the liberation of arachidonic acid in stimulated PMNL. Human PMNL were incubated with test compounds (1 μM) or their diluent (control, DMSO 0.5%) for 5 min. Stimulation was then initiated with the addition of 1 μM thapsigargin, followed by an incubation at 37°C for 5 min. The reactions were stopped with the addition of two volumes of cold MeOH and 300 ng of arachidonic acid-d8, then samples were stored overnight at −20°C. Free arachidonic acid was first extracted on octadecyl columns, then pentafluorobenzylesters of arachidonic acid were prepared and samples were measured on GC-MS. Spontaneous release of AA was also measured in absence of thapsigargin (nonactivated, NA). ^∗Different from control as determined by one-way ANOVA with Dunnett's multiple comparison test (p < 0.05). Data are expressed as means ± SEM of at least 3 independent experiments.

[2] = target: T1, 5-LO (Homo sapiens, UniProt P09917); assay: Biosynthesis of 5-LO products in HEK293 cells expressing 5-LO and FLAP (A23187 + arachidonic acid); type: cell-based; set-up: expressed in transfected cells; host or cells: HEK293; settings: 1 μM compound, 10 μM A23187 + 10 μM arachidonic acid, 15 min
T1 sequence (P09917 1-674): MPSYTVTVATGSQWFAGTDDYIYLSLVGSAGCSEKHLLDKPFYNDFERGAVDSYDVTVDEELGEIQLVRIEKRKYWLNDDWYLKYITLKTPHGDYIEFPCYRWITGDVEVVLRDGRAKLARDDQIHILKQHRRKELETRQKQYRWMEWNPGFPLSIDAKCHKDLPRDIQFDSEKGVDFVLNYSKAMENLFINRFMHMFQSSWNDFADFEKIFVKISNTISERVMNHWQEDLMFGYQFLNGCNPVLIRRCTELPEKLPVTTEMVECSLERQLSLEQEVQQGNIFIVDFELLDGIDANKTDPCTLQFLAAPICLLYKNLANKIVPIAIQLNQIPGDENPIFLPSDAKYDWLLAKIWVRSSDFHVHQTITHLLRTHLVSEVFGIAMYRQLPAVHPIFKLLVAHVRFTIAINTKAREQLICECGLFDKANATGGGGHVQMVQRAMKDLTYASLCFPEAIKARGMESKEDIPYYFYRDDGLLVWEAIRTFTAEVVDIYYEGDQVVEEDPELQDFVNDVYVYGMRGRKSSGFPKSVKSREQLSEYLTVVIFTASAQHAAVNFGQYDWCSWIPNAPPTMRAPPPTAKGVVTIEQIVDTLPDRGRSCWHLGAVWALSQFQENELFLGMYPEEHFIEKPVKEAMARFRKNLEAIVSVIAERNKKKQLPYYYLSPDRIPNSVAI
Protocol: HEK293 cells expressing both 5-LO and the 5-lipoxygenase activating protein (FLAP) were generated as previously reported. For cell stimulation of 5-LO products, transfected HEK293 cells were collected following trypsinization and washed and the cell pellet was resuspended in Hank's balanced salt solution (HBSS, Lonza) containing 1.6 mM CaCl2 at a concentration of 5 × 10^5 cells/ml. Cells were preincubated with each compound at the indicated concentration for 5 min at 37°C. Cells were then stimulated for 15 minutes at 37°C with the addition of 10 μM calcium ionophore A23187 (Sigma-Aldrich) and 10 μM arachidonic acid (Cayman Chemical). Stimulations were stopped by adding 0.5 volume of cold MeOH:MeCN (1 : 1) containing 100 ng/ml of 19-OH prostaglandin B2 (PGB2) as internal standard. Samples were then processed and 5-LO products were analyzed by reversed-phase high-performance liquid chromatography (RP-HPLC) as described previously.
To evaluate CAPE analogues as potential inhibitors of the biosynthesis of 5-LO products, a first series of experiments was performed in HEK293 cells expressing both 5-LO and FLAP as previously described. HEK293 cells were first preincubated with the test compounds (1 μM), then stimulated in the presence of arachidonic acid and calcium ionophore A23187 to induce the biosynthesis of 5-LO products (Figure 2(a)). […] Based on these criteria, compounds 9, 13, 14, 15, 16, and 19 were selected for subsequent analyses.
Figure 2 Effect of the test compounds on the biosynthesis of 5-LO products in transfected HEK293 cells (a) and thapsigargin-stimulated PMNL (b). (a) HEK293 cells expressing both 5-LO and FLAP were incubated in presence of the indicated compounds (1 μM) or their diluent (control, 0.5% DMSO) for 5 min, then biosynthesis of 5-LO products was initiated with the addition of 10 μM calcium ionophore A23187 and 10 μM arachidonic acid for 15 min. After stimulation, reactions were stopped and samples were processed for analysis of 5-LO products by RP-HPLC. Total 5-LO products measured represent the sum of LTB4, its trans isomers, and 5-hydroxyeicosatetraenoic acid. (b) Freshly isolated human PMNL were incubated in presence of test compounds (or their diluent control, DMSO 0.5%) at the indicated concentrations for 5 min. Biosynthesis of the 5-LO products was initiated with the addition of 1 μM of thapsigargin, followed by a 15 min incubation period at 37°C. The stimulation was then stopped and samples were processed for RP-HPLC analysis and total 5-LO products quantification. Total 5-LO products measured represent the sum of LTB4, its trans isomers, 20-COOH- and 20-OH-LTB4 and 5-hydroxyeicosatetraenoic acid. Data are expressed as means ± SEM of at least 3 independent experiments. ^∗Different from control, as determined by one-way ANOVA with Dunnett's multiple comparison test (p < 0.05).

## O=C(/C=C/c1ccc(O)c(O)c1)OCCc1ccccc1 [CAPE (2), Caffeic acid phenethyl ester, reference compound]
[1]
  Inhibition of cellular arachidonic acid release in stimulated PMNL: significantly inhibited cellular arachidonic acid release
[2]
  Inhibition of biosynthesis of 5-LO products in transfected HEK293 cells: significantly inhibited the biosynthesis of 5-LO products

## C=C(C)CCOC(=O)/C=C/c1ccc(O)c(O)c1 [Compound 9]
[1]
  Inhibition of cellular arachidonic acid release in stimulated PMNL: significantly inhibited cellular arachidonic acid release
[2]
  Inhibition of biosynthesis of 5-LO products in transfected HEK293 cells: showed similar or better inhibitory activity than the reference compound CAPE (2), or decreased the biosynthesis of 5-LO products by more than 50%; also recorded: best inhibitory activity amongst the compounds from the aliphatic series

## O=C(/C=C/c1ccc(O)c(O)c1)OCCCc1ccccc1 [Compound 13]
[1]
  Inhibition of cellular arachidonic acid release in stimulated PMNL: significantly inhibited cellular arachidonic acid release
[2]
  Inhibition of biosynthesis of 5-LO products in transfected HEK293 cells: showed similar or better inhibitory activity than the reference compound CAPE (2), or decreased the biosynthesis of 5-LO products by more than 50%

## O=C(/C=C/c1ccc(O)c(O)c1)OCCc1ccc(F)cc1 [Compound 14]
[1]
  Inhibition of cellular arachidonic acid release in stimulated PMNL: failed to significantly inhibit the release of cellular membrane arachidonic acid
[2]
  Inhibition of biosynthesis of 5-LO products in transfected HEK293 cells: showed similar or better inhibitory activity than the reference compound CAPE (2), or decreased the biosynthesis of 5-LO products by more than 50%

## Cc1ccc(CCOC(=O)/C=C/c2ccc(O)c(O)c2)cc1 [Compound 15]
[1]
  Inhibition of cellular arachidonic acid release in stimulated PMNL: failed to significantly inhibit the release of cellular membrane arachidonic acid
[2]
  Inhibition of biosynthesis of 5-LO products in transfected HEK293 cells: showed similar or better inhibitory activity than the reference compound CAPE (2), or decreased the biosynthesis of 5-LO products by more than 50%

## COc1ccc(CCOC(=O)/C=C/c2ccc(O)c(O)c2)cc1 [Compound 16]
[1]
  Inhibition of cellular arachidonic acid release in stimulated PMNL: failed to significantly inhibit the release of cellular membrane arachidonic acid
[2]
  Inhibition of biosynthesis of 5-LO products in transfected HEK293 cells: showed similar or better inhibitory activity than the reference compound CAPE (2), or decreased the biosynthesis of 5-LO products by more than 50%

## O=C(/C=C/c1ccc(O)c(O)c1)OCC(c1ccccc1)c1ccccc1 [Compound 19]
[1]
  Inhibition of cellular arachidonic acid release in stimulated PMNL: significantly inhibited cellular arachidonic acid release
[2]
  Inhibition of biosynthesis of 5-LO products in transfected HEK293 cells: showed similar or better inhibitory activity than the reference compound CAPE (2), or decreased the biosynthesis of 5-LO products by more than 50%
